Counter-ions that a name gives are not always drawn. Like-named read-outs stand apart in the source and are kept apart here.
Columns and labels:
[1] = Fluorescence emission spectra and quantum yield; type: physicochemical; conditions: Tris/HCl buffer pH 6.6, excitation 350 nm
Protocol: Fluorescence emission spectra were recorded on a Jobin Yvon-Spex FluoroMax-2 spectrofluorometer with 1 nm spectral resolution for excitation and emission. A peptide solution at a concentration of 2×10^−5M in Tris-HCl buffer, pH 6.6, was used. The excitation wavelength was 350 nm. Fluorescence quantum yield (φ) was determined relative to quinine sulfate (Fluka) in 1 N H2SO4 (φ=0.546) as a reference (Meech et al., Journal of Photochemistry, 23: 193 (1983)). The quantum yield was calculated according to the following equation: [formula] where the subscripts S and R refer to the sample ns and reference compound, respectively; E is the integrated area under the corrected emission spectrum; A is the absorbance of the solution at the excitation wavelength. Absorbance values were kept below 0.02 to minimise inner filter and self-quenching effects. Since both the sample and the reference were in aqueous solution, the correction for the refractive index (nS/nR)^2 was considered to be of no significant relevance.

mouse δ-opioid receptors = biological target: T1, mouse δ-opioid receptors (Mus musculus, UniProt P32300); assay: Confocal microscopic visualization of fluorescent probe binding in NG108-15 cells; type: cell-based; conditions: for blockage of fluorescence of probe 3 bound to δ-opioid receptors: NG108-15 cells preincubated with antagonist (naltrindole 0.2 μM, 5 min) before adding the probe
T1 construct: NG108-15 (mouse N18 neuroblastoma x rat C6 glioma) cell line, which expresses mouse δ-opioid receptors; endogenous in cells; host or cells: NG108-15 (mouse N18 neuroblastoma x rat C6 glioma)
T1 sequence (P32300 whole entry): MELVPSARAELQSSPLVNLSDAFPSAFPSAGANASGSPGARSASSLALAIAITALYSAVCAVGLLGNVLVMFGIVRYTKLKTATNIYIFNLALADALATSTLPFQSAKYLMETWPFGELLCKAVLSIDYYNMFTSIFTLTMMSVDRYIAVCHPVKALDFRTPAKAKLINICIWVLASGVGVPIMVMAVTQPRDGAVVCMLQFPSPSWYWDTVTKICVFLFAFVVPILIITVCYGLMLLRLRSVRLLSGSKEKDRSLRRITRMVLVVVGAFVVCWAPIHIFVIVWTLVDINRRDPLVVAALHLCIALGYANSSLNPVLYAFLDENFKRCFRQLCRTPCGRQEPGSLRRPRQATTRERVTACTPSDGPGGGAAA
Protocol: Visualization of δ-opioid receptor sites with the inventive fluorescent probe was obtained by incubating (15 min at 35° C.) the fluorescent tripeptide 3 (0.2 μM) with the NG108-15 (mouse N18 neuroblastoma x rat C6 glioma) cell line, which expresses mouse δ-opioid receptors. […] Localization and visualization of opioid receptor binding sites were obtained by incubating the fluorescent probe with the NG108-15 cells as shown in the left half of the fluorescent photomicrograph obtained from the confocal scanning laser microscope (FIG. 3).

δ-opioid receptor [2] = biological target: T2, δ-opioid receptor (Homo sapiens, UniProt P41143); conditions: cited from earlier work
T2 sequence (P41143 whole entry): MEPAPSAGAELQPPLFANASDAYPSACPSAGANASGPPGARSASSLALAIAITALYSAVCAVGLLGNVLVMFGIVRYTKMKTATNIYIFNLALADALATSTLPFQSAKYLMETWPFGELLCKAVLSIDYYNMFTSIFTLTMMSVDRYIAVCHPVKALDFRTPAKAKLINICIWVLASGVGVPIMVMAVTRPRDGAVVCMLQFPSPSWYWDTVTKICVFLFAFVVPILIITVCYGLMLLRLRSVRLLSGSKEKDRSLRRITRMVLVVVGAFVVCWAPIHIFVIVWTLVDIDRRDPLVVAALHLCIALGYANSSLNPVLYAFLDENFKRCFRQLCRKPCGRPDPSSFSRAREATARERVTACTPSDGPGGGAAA

μ-opioid receptors [3] = assay: Functional bioactivity in guinea-pig ileum (GPI), electrically-evoked twitch; type: cell-based; conditions: agonist activity, inhibition of electrically-evoked twitch
Protocol: (§1) Preparations of myenteric plexus-longitudinal muscle obtained from male guinea-pig ileum (GPI, enriched in μ-opioid receptors) and preparations of mouse vas deferens (MVD, containing δ-opioid receptors) were used for field stimulation with bipolar rectangular pulses of supramaximal voltage (Melchiorri et al., Eur. J. Pharm., 195: 201-207 (1991)). Agonists were evaluated for their ability to inhibit the electrically-evoked twitch. The biological potency of the compounds was compared with that of the μ-opioid receptor agonist dermorphin in GPI and with that of the δ-opioid receptor agonist deltorphin C in MVD. The results are expressed as the IC50 values obtained from dose-response curves (Prism™, GraphPad). To evaluate antagonistic properties, compounds 2 and 3 were added to the bath and allowed to interact with tissue receptor sites 5 min before adding deltorphin C. The IC50 values (nM) represent the mean of not less than six fresh tissue samples±SE. […] IC50 and pA2 values (nM) are mean ±SE of at least six experiments conducted with fresh tissues.

δ-opioid receptors [4] = biological target: T3, δ-opioid receptors (Rattus norvegicus, UniProt P33533); conditions: rat brain synaptosomes; data taken from Balboni et al., J. Med Chem. 2004; read-out: Receptor affinity Ki^δ; cited from earlier work
T3 construct: using rat brain synaptosomes (P2 fraction); from tissue; host or cells: rat brain synaptosomes (P2 fraction)
T3 sequence (P33533 whole entry): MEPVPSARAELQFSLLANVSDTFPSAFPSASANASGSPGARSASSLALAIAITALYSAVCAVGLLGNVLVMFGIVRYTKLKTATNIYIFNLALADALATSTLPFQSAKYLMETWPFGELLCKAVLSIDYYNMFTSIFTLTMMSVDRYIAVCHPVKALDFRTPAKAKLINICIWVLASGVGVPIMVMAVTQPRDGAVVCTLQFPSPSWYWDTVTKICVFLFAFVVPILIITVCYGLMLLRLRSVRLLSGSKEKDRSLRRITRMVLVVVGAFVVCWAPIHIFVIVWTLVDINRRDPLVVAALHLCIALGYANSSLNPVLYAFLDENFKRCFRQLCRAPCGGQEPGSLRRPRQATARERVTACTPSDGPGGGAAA

μ-opioid receptors [5] = biological target: T4, μ-opioid receptors (Rattus norvegicus, UniProt P33535); conditions: rat brain synaptosomes; data taken from Balboni et al., J. Med Chem. 2004; read-out: Receptor affinity Ki^u; cited from earlier work
T4 construct: using rat brain synaptosomes (P2 fraction); from tissue; host or cells: rat brain synaptosomes (P2 fraction)
T4 sequence (P33535 whole entry): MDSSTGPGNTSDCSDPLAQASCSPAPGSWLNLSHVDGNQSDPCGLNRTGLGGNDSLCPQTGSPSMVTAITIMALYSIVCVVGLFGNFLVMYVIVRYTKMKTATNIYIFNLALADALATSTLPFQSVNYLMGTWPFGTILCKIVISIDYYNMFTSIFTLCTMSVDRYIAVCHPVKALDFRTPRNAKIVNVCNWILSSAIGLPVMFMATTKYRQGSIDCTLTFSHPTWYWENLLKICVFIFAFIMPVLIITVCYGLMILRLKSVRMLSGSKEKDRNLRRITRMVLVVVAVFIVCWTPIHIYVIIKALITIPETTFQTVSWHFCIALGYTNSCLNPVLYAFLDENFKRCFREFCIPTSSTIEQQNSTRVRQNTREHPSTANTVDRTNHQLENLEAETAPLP

δ-opioid receptors [6] = biological target: T5, δ-opioid receptors (Mus musculus, UniProt P32300); conditions: cited from earlier work
T5 construct: preparations of mouse vas deferens (MVD, containing δ-opioid receptors); from tissue; host or cells: mouse vas deferens
T5 sequence (P32300 whole entry): as the sequence (P32300 whole entry) above

δ-opioid receptor [7] = biological target: T2, δ-opioid receptor; conditions: δ-opioid antagonist activity, literature; cited from earlier work
δ-opioid receptors [8] = biological target: T3, δ-opioid receptors; assay: Competitive receptor binding assay, rat brain synaptosomes (P2 fraction), [3H]DPDPE; conditions: for fold decrease of δ-opioid receptor selectivity: compared to reference 1; for μ/δ (δ-opioid receptor selectivity): ratio Ki μ / Ki δ
μ-opioid receptors [9] = biological target: T4, μ-opioid receptors; assay: Competitive receptor binding assay, rat brain synaptosomes (P2 fraction), [3H]DAMGO
δ-opioid receptors [10] = biological target: T5, δ-opioid receptors; assay: Functional bioactivity in mouse vas deferens (MVD), electrically-evoked twitch; type: cell-based
Protocol: as §1

Compound: Ac-Glu-NH(CH2)5—NH—(C═S)—NH-fluorescein
- fluorescence emission maximum [1]: 515 nm

Compound: Oc1ccc2c3c1O[C@H]1c4[nH]c5ccccc5c4C[C@@]4(O)[C@@H](C2)N(CC2CC2)CC[C@]314 [naltrindole]
- blockage of fluorescence of probe 3 bound to δ-opioid receptors (mouse δ-opioid receptors): essentially eliminated the fluorescence
- blockage of fluorescence of probe 3 bound to δ-opioid receptors (mouse δ-opioid receptors; listed as NTI): considerable blockage of the fluorescence

Compound: H-Tyr-Tic-Phe-(Phe)-OH [TIPP]
- δ-selectivity (δ-opioid receptor [2]; Arttamangkul et al., Mol. Pharmacol. 2000): > 20,000

Compound: Cc1cc(O)cc(C)c1C[C@H](N)C(=O)N1Cc2ccccc2C[C@H]1C(=O)N[C@@H](CCC(=O)O)C(=O)NCCCCCNC(=S)Nc1ccc(-c2c3ccc(=O)cc-3oc3cc(O)ccc23)c(C(=O)O)c1 (as salt: TFA) [Compound 3, 5-(3-{5-[2-({2-[2-amino-3-(4-hydroxy-2,6-dimethyl-phenyl)-propionyl]-1,2,3,4-tetrahydro-isoquinoline-3-carbonyl}-amino)-4-carboxy-butyrylamino]-pentyl}-thioureido)-2-(6-hydroxy-3-oxo-3H-xanten-9-yl)-benzoic acid]
- melting point: 169 to 171 °C

Compound: H-Dmt-Tic-Glu-NH2 [Compound 1]
- IC50 (μ-opioid receptors [3]): > 1000 nM
- Ki (δ-opioid receptors [4]): 0.06 ± 0.008 nM
- Ki (μ-opioid receptors [5]): 1360 ± 268 nM
- MVD activity type (δ-opioid receptors [6]; Balboni et al., J. Med. Chem. 2004): partial δ-opioid agonist
- IC50 (δ-opioid receptors [6]; agonist activity, inhibition of electrically-evoked twitch, data taken from Balboni et al. 2004, read-out: MVD (IC50)): 2.58 ± 0.8 nM

Compound: 2′,6′-dimethyl-L-tyrosine-1,2,3,4-tetrahydroisoquinoline-3-carboxylic acid [Dmt-Tic]
- Ki^μ/Ki^δ (δ-opioid receptor [2]; literature (Salvadori et al. 1995 and others)): 150,780
- pA2 (δ-opioid receptor [7]): 8.2

Compound: Cc1cc(O)cc(C)c1C[C@H](N)C(=O)N1Cc2ccccc2C[C@H]1C(=O)N[C@@H](CCC(=O)O)C(=O)NCCCCCN [Compound 2, H-Dmt-Tic-Glu-NH-(CH2)5—NH2]
- Ki (δ-opioid receptors [8]): 0.22 ± 0.04 nM
- fold decrease of δ-opioid receptor selectivity (δ-opioid receptors [8]): 13 fold
- fold decrease in affinity for δ-opioid receptors (δ-opioid receptors [8]; compared to reference H-Dmt-Tic-Glu-NH2 (1)): 3.7 fold
- μ/δ (δ-opioid receptor selectivity) (δ-opioid receptors [8]): 1700
- Ki (μ-opioid receptors [9]): 380 ± 65 nM
- fold increase of μ-opioid receptor affinity (μ-opioid receptors [9]; compared to the reference tripeptide (1)): 3.6 fold
- Kb (δ-opioid receptors [10]): 1.58 nM
- MVD activity type (δ-opioid receptors [10]; against [D-Ala2]deltorphin I dose-response curves): competitive antagonist
- MVD pA2 (δ-opioid receptors [10]; antagonism of deltorphin C, Schild plot): 8.8
- IC50 (μ-opioid receptors [3]): > 1000 nM
- melting point: 163 to 165 °C

Compound: Cc1cc(O)cc(C)c1C[C@H](N)C(=O)N1Cc2ccccc2C[C@H]1C(=O)N[C@@H](CCC(=O)O)C(=O)NCCCCCNC(=S)Nc1ccc(-c2c3ccc(=O)cc-3oc3cc(O)ccc23)c(C(=O)O)c1 [Compound 3, 5-(3-{5-[2-({2-[2-amino-3-(4-hydroxy-2,6-dimethyl-phenyl)-propionyl]-1,2,3,4-tetrahydro-isoquinoline-3-carbonyl}-amino)-4-carboxy-butyrylamino]-pentyl}-thioureido)-2-(6-hydroxy-3-oxo-3H-xanten-9-yl)-benzoic acid]
- Ki (δ-opioid receptors [8]): 0.035 ± 0.01 nM
- fold more δ-selective than fluorescent naltrindole derivative (δ-opioid receptors [8]; comparator from Korlipara et al. 1997): 857 fold
- fold more δ-selective than fluorescent naltrindole derivative (δ-opioid receptors [8]; comparator from Kshirsagar et al. 1998): 115 fold
- fold decrease of δ-opioid receptor selectivity (δ-opioid receptors [8]): 5 fold
- δ-opioid receptor binding affinity (in words) (δ-opioid receptors [8]; rat brain synaptosomes): subnanomolar
- μ/δ (δ-opioid receptor selectivity) (δ-opioid receptors [8]): 4,370
- Ki (μ-opioid receptors [9]): 152 ± 44 nM
- residual fluorescence after antagonist preincubation (mouse δ-opioid receptors; NG108-15 cells, competition with δ-opioid receptor antagonists): ca. 10%

Source: patent publication US20060104907A1, “Biologically potent analogues of the Dmt-Tic pharmacophore and methods of use” (Government of the U.S.A., represented by the Secretary, …, priority 2004, published 2006)
